Article PMC8703884, “Synthesis and Biological Evaluation of S-, O- and Se-Containing Dispirooxindoles” (Molecules, 2021)

Tests used:
[1] = system: HCT116^+/+ human colon cancer cells (p53 positive); assay: MTT cytotoxicity test, HCT116 p53+/+; settings: for CC50: Homo sapiens, HCT-116, read-out: CC50, HCT^+/+; for selectivity S against HCT116^+/+ over HCT116^−/−: ratio of CC50 values of the cell line pair
Text: (§1) The used models included human prostate cancer cell lines LNCaP and PC3, breast cancer cell line (MCF-7), human colon cancer cells (HCT116^+/+, p53 positive, p53^+/+ and HCT116^−/−, p53 negative, p53^−/−), human lung adenocarcinoma epithelial cell line (A549), SV40-transformed normal human lung fibroblast cells (VA13), as well as human embryonic kidney 293 cells (Hek293) stably expressing SV40 large T antigen (Hek293T). The cytotoxicity of the evaluated molecules was properly assessed using a MTT assay based on the modified approach reported by Ferrari and colleagues.
(§2) To further elucidate the dominant mode of action, we used HCT116^+/+ and HCT116^−/− cells by analogy with the paper published by Shangary and colleagues. This isogenic cell line is commonly applied to investigate the p53/MDM2-dependent mode of action.
(§3) MTT test. The MTT assay was carried out according to [35] with few modifications; 3000 Cells (for HEK293T, A549 and MCF7cell lines) or 4000 cells (for VA13 cell line) were seeded in each well of a 96-well plate. […] Assays were performed in triplicates. […] The MTT solution was then discarded and 140 µL of DMSO was added. The plates were swayed on a shaker (60 rpm) to solubilize the formazan. […] The analysis of cytotoxicity and the estimation of IC50 values were carried out with the built-in functions in the GraphPad Prism program (GraphPad Software, Inc., San Diego, CA) P53 activation.

[2] = MTT cytotoxicity test, Hek293T; assay type: cell-based; settings: human, 72 h incubation
[3] = MTT cytotoxicity test, VA13; assay type: cell-based; settings: human, VA13 SV40-transformed normal lung fibroblast cells, 72 h incubation
Procedure: (§4) MTT test. […] Assays were performed in triplicates.

[4] = system: MCF7 breast cancer cell line; assay: MTT cytotoxicity test, MCF7; assay type: cell-based; settings: Homo sapiens, 72 h incubation
Procedure: as §4

[5] = system: A549 human lung adenocarcinoma epithelial cell line; assay: MTT cytotoxicity test, A549; assay type: cell-based; settings: 72 h incubation
[6] = system: PC3 human prostate cancer cell line; assay: MTT cytotoxicity test, PC3; assay type: cell-based; settings: for CC50: Homo sapiens
[7] = system: LNCaP human prostate cancer cell line; assay: MTT cytotoxicity test, LNCaP; assay type: cell-based; settings: for CC50: Homo sapiens, LNCaP, read-out: CC50, LNCaP; for CC50 / CC50, LNCaP / selectivity on LNCaP cells over PC3 cells: MTT test; for selectivity index S for LNCaP/PC3 cells: ratio of CC50 values of the cell line pair
[8] = system: HCT116^−/− human colon cancer cells (p53 negative); assay: MTT cytotoxicity test, HCT116 p53-/-; settings: HCT-116, read-out: CC50, HCT^−/−
Text: as §1, §2, §3

melting point	SMILES	CC50 [1] [µM]	CC50 at 72 h [2] [µM]	CC50 at 72 h [3] [µM]	CC50 [4] [µM]	CC50 [5] [µM]	CC50 [6] [µM]	CC50 [7] [µM]	CC50 [8] [µM]	selectivity S against HCT116^+/+ over HCT116^−/− [1]	selectivity index S for LNCaP/PC3 cells [7]	CC50, PC3 [6]	CC50, LNCaP [7]	selectivity on LNCaP cells over PC3 cells [7]
281 to 283 °C (dec.)	C=CCN1C(=O)C2(CN(C)CC23C(=O)Nc2ccccc23)NC1=S (stereo not shown) [Compound 4c, 1′-Methyl-1-allyl-2-thioxodispiro[imidazolidine-4,3′-pyrrolidine-4′,3″-indoline]-2″,5-dione]	> 100	41.8 ± 12.4	> 100	> 100	45.9 ± 13.4	53.1 ± 15.8	9.8 ± 3.3	14.3 ± 6.65					
273 to 274 °C	CN1CC2(NC(=S)N(c3ccccc3)C2=O)C2(C1)C(=O)Nc1ccccc12 (stereo not shown) [Compound 4w, 1′-Methyl-1-phenyl-2-thioxodispiro[imidazolidine-4,3′-pyrrolidine-4′,3″-indoline]-2″,5-dione]	54.7 ± 9.5	75.1 ± 8.6	94.1 ± 19.7	57.9 ± 17.1	> 100	52.2 ± 11.6	9.8 ± 1.8	> 100	> 4.8	5.3			
155 to 156 °C	COc1ccc(N2C(=O)C3(CN(C)CC34C(=O)Nc3ccccc34)NC2=S)cc1 (stereo not shown) [Compound 4e, 1′-Methyl-1-(4-methoxyphenyl)-2-thioxodispiro[imidazolidine-4,3′-pyrrolidine-4′,3″-indoline]-2″,5-dione]	27.9 ± 6.94	6.5 ± 0.9	13.2 ± 2.3	22.8 ± 5.6	18.9 ± 3.1	> 100	3.45 ± 0.45	36 ± 12.6		> 30			
272 to 273 °C (dec.)	CN1CC2(NC(=S)N(C3CC3)C2=O)C2(C1)C(=O)Nc1ccccc12 (stereo not shown) [Compound 4s, 1′-Methyl-1-cyclopropyl-2-thioxodispiro[imidazolidine-4,3′-pyrrolidine-4′,3″-indoline]-2″,5-dione]	> 100	> 100	> 100	> 100	> 100	> 100	> 100	> 100					
273 to 274 °C	CN1CC2(NC(=S)N(c3ccc(F)cc3)C2=O)C2(C1)C(=O)Nc1ccccc12 (stereo not shown) [Compound 4m, 1′-Methyl-1-(4-fluorophenyl)-2-thioxodispiro[imidazolidine-4,3′-pyrrolidine-4′,3″-indoline]-2″,5-dione]	23.3 ± 3.3	> 100	171 ± 15.8	106 ± 43.1	> 100	1.93 ± 0.91	3.4 ± 0.7	42.4 ± 4.7					
252 to 254 °C	CN1CC2(NC(=S)N(c3ccc(F)c(Cl)c3)C2=O)C2(C1)C(=O)Nc1ccccc12 (stereo not shown) [Compound 4q, 1′-Methyl-1-(3-chloro-4-fluorophenyl)-2-thioxodispiro[imidazolidine-4,3′-pyrrolidine-4′,3″-indoline]-2″,5-dione]	> 100	69.1 ± 21	57.9 ± 18.3	62.2 ± 27.7	> 100	> 100	> 100	> 100					
177 to 180 °C	CN1CC2(NC(=S)N(c3ccc(F)c(Cl)c3)C2=O)C2(C1)C(=O)Nc1ccc(Cl)cc12 (stereo not shown) [Compound 4r, 5″-Chloro-1′-methyl-1-(3-chloro-4-fluorophenyl)-2-thioxodispiro[imidazolidine-4,3′-pyrrolidine-4′,3″-indoline]-2″,5-dione]	> 100	11.1 ± 1.3	13.9 ± 1.5	14.1 ± 1.2	14.1 ± 1.8	> 100	> 100	> 100			absolutely inactive	absolutely inactive	
152 to 153 °C	CN1CC2(NC(=S)N(Cc3ccccc3)C2=O)C2(C1)C(=O)Nc1ccc(Cl)cc12 (stereo not shown) [Compound 4b, 5″-Chloro-1′-methyl-1-benzyl-2-thioxodispiro[imidazolidine-4,3′-pyrrolidine-4′,3″-indoline]-2″,5-dione]	60.7 ± 13.8	9.5 ± 1.7	21.4 ± 1.9	24.3 ± 2.3	9.1 ± 2.2	49 ± 12.7	10.3 ± 1.1	30 ± 15.2					moderate selectivity
275 to 276 °C	CN1CC2(NC(=S)N(C3CC3)C2=O)C2(C1)C(=O)Nc1ccc(Cl)cc12 (stereo not shown) [Compound 4t, 5″-Chloro-1′-methyl-1-cyclopropyl-2-thioxodispiro[imidazolidine-4,3′-pyrrolidine-4′,3″-indoline]-2″,5-dione]	> 100	> 100	> 100	> 100	> 100	> 100	> 100	> 100					
159 to 160 °C	Cc1ccc(N2C(=O)C3(CN(C)CC34C(=O)Nc3ccc(Cl)cc34)NC2=S)cc1 (stereo not shown) [Compound 4j, 5″-Chloro-1′-methyl-1-(p-tolyl)-2-thioxodispiro[imidazolidine-4,3′-pyrrolidine-4′,3″-indoline]-2″,5-dione]	> 100	17.4 ± 2	27.2 ± 5.3	13.7 ± 2.1	62 ± 8.3	> 100	> 100	> 100					
141 to 142 °C	C=CCN1C(=O)C2(CN(C)CC23C(=O)Nc2ccc(Cl)cc23)NC1=S (stereo not shown) [Compound 4d, 5″-Chloro-1′-methyl-1-allyl-2-thioxodispiro[imidazolidine-4,3′-pyrrolidine-4′,3″-indoline]-2″,5-dione]	57.7 ± 18.4	11.5 ± 3	30.8 ± 4.5	68.4 ± 8.8	32.1 ± 6.7	50 ± 9.1	20 ± 3.6	40.1 ± 5.23					moderate selectivity
261 to 262 °C	CN1CC2(NC(=S)N(Cc3cccc(Cl)c3)C2=O)C2(C1)C(=O)Nc1ccc(Cl)cc12 (stereo not shown) [Compound 4p, 5″-Chloro-1′-methyl-1-(3-chlorobenzyl)-2-thioxodispiro[imidazolidine-4,3′-pyrrolidine-4′,3″-indoline]-2″,5-dione]	34.2 ± 5.7	18.4 ± 1.7	12.3 ± 1.6	6.6 ± 1	11.3 ± 2.4	2.2 ± 1.4	4.1 ± 0.1	> 100	> 2.9				
216 to 217 °C	CN1CC2(NC(=S)N(CCCN3CCOCC3)C2=O)C2(C1)C(=O)Nc1ccccc12 (stereo not shown) [Compound 4u, 1′-Methyl-1-(3-morpholinopropyl)-2-thioxodispiro[imidazolidine-4,3′-pyrrolidine-4′,3″-indoline]-2″,5-dione]	20.8 ± 4.8	> 100	> 100	> 100	> 100	53.6 ± 17.3	3.4 ± 0.6	> 100	> 1.8	15.7			selective
240 to 241 °C	CCOc1ccc(N2C(=O)C3(CN(C)CC34C(=O)Nc3ccccc34)NC2=S)cc1 (stereo not shown) [Compound 4g, 1′-Methyl-1-(4-ethoxyphenyl)-2-thioxodispiro[imidazolidine-4,3′-pyrrolidine-4′,3″-indoline]-2″,5-dione]	> 100	30.2 ± 8.2	73.6 ± 23.4	75.2 ± 29.3	38.2 ± 11.5	> 100	> 100	> 100					
268 to 271 °C	CCOc1ccc(N2C(=O)C3(CN(C)CC34C(=O)Nc3ccc(Cl)cc34)NC2=S)cc1 (stereo not shown) [Compound 4h, 5″-Chloro-1′-methyl-1-(4-ethoxyphenyl)-2-thioxodispiro[imidazolidine-4,3′-pyrrolidine-4′,3″-indoline]-2″,5-dione]	> 100	6.7 ± 0.9	6.3 ± 1.1	8.5 ± 1.2	6.2 ± 2.1	> 100	> 100	> 100			no activity at all	no activity at all	
